Experimental data: US12551479B2, “Acyl-protein thioesterase inhibitor for the treatment and/or prevention of Huntington's disease” (UNIVERSITÉ GRENOBLE ALPES, priority 2019, dated 2026)

Experiments:
StHdh^Q111/Q111 cells = assay: RUSH system: GPI-SBP-mCherry trafficking from endoplasmic reticulum to Golgi and plasma membrane; format: cell-based, mouse
Procedure: The RUSH plasmid (Boncompain et al., 2012) is a bicistronic plasmid (SEQ ID NO: 2) allowing the expression of two parts of the system: the reticulum-specific anchor (KDEL-streptavidin), and the reporter part (GPI-SBP-mCh). The addition of biotin in the extracellular medium (40 μM) induces the unhooking of the reporter part of the anchor, thus allowing to follow the intracellular trafficking in a synchronized way within a cell population from the endoplasmic reticulum.
For striatal StHdh cells, acute treatment was performed at 10 μM for 1 hour before and during the acquisition time. For neurons within the microchambers, treatments were started at DIV2 until DIV12 every day at 1 μM in each compartment of the microfluidic device.
The inventors used the Retention Using Selective Hooks (RUSH) system to study intracellular dynamics from the ER to the plasma membrane in Huntington's disease condition (FIG. 1A). RUSH allows tracking the synchronous release of a reporter molecule from specific intracellular compartments. In the present experiment, the inventors followed the release of glycosylphosphatidylinositol (GPI)-anchored fluorescence protein mCherry, and fused to streptavidin-binding peptide (SBP) that was retained into the ER compartment by the interaction with a “hook” protein composed of the KDEL motif fused to streptavidin. In the absence of biotin, the GPI-SBP-mCherry localizes at the ER (FIG. 1A). Addition of biotin to the cells expressing GPI-SBP-mCherry and KDEL-streptavidin causes a synchronous release of the GPI-SBP-mCherry reporter from the hook which then migrates to the Golgi apparatus and later to the plasma membrane.
To study these dynamics in the context of Huntington's disease, the inventors transfected the GPI-SBP-mCherry-KDEL-streptavidin construct as shown in SEQ ID NO:2 into immortalized striatal cells from Hdh^Q111/Q111 and Hdh^Q7/Q7 mice, referred to as StHdh^Q111/Q111 and StHdh^Q7/Q7 cells respectively. They then monitored GPI-SBP-mCherry trafficking by real-time imaging for 90 minutes. To assess intracellular trafficking dynamics, they quantified the kinetics of appearance and disappearance of mCherry fluorescence in the Golgi apparatus over time (FIGS. 1B and C). Shortly after biotin addition, GPI leaves the ER and moves to the Golgi apparatus. The inventors quantified fluorescence at the Golgi and observed that in StHdh^Q7/Q7 cells, the peak fluorescence was at 16.6 minutes, whereas it was delayed to 23.6 minutes in StHdh^Q111/Q111 cells (FIG. 1B). Their observations indicate a reduced trafficking of GPI from the ER to the Golgi apparatus as well as prolonged retention of GPI in the Golgi as evidenced by a longer period of GPI fluorescence in the Golgi apparatus.

melanoma cells = conditions: studies of Vujic et al., 2015; cited from earlier work
APT1 = APT1 (Homo sapiens, UniProt O75608); conditions: read-out: IC50APT1; cited from earlier work
APT2 = APT2 (Homo sapiens, UniProt O95372); conditions: read-out: IC50APT2; cited from earlier work
[1] = StHdh^Q111/Q111 cells, inhibitor 10 μM 1 hour or siRNA gene silencing

APT1, sequence (O75608 whole entry): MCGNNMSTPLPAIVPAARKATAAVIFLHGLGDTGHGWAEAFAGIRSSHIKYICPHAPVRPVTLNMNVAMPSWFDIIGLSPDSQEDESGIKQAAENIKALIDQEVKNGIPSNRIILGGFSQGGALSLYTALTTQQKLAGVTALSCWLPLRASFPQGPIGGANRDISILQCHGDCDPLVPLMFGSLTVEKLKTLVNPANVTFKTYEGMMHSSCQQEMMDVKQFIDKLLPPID
APT2, sequence (O95372 whole entry): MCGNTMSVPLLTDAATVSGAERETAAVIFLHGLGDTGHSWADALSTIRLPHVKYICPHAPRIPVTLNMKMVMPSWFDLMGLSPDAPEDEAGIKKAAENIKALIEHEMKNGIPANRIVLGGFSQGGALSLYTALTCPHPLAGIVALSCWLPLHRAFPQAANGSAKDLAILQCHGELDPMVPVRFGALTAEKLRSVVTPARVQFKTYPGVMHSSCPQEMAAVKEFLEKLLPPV

SMILES	effect on kinetics from the endoplasmic reticulum to the Golgi apparatus (StHdh^Q111/Q111 cells; [1])	effect on retention in the Golgi (StHdh^Q111/Q111 cells; [1])	effect on melanoma cells (melanoma cells)	time after biotin addition for the appearance of the fluorescence peak in the Golgi (StHdh^Q111/Q111 cells; StHdh^Q111/Q111 cells treated 1 hour with 10 μM, without treatment 23.2-23.3 min, StHdh^Q7/Q7 16.6 min)	time for fluorescence to leave the Golgi apparatus (retention time in the Golgi) (StHdh^Q111/Q111 cells; StHdh^Q111/Q111 cells treated 1 hour with 10 μM, without treatment 24-25.4 min, wild-type cells 15.1 min)	IC50 (APT1)	IC50 (APT2)
COc1ccc(N2CCN(C(=O)c3cc4c(s3)-c3ccccc3S(=O)(=O)C4)CC2)cc1 [ML-349]	no effect	no effect	no biologically significant effect	–	–	–	–
CCCCCCCCCC[C@@H]1C(=O)O[C@H]1CCc1ccc(OC)c(OC)c1 [Palmostatin B]	–	–	–	18 min	21.3 min	5.4 nM	37.7 nM
